The values below come from US11708366B2, “Heteroaryl substituted spiropiperidinyl derivatives and pharmaceutical uses thereof” (Novartis AG, priority 2020, dated 2023).

The target in one assay is LTC4S (Homo sapiens (Human), UniProt Q16873). The experiment in a line: Human whole blood HTRF assay (LTC4 release after calcium ionophore A23187). Type of assay: cell-based. The following applies: human whole blood HTRF IC50, human whole blood diluted 1:3, 4 h incubation, calcium ionophore A23187 stimulation, LTC4 by HTRF. How it is done: B. Human Whole Blood HTRF Assay
LTC4 synthase catalyzes the conversion of Leukotriene A4 (LTA4) to Leukotriene C4 (LTC4) in the presence of reduced glutathione (GSH) as a co-substrate. For testing the inhibition of LTC4S, compounds are prepared for either eight-point or sixteen-point dose response studies in 384-well Labcyte low dead volume (LDV) plates. For eight-point dose response studies, compounds are diluted 1:5 starting at 1 μM concentration in 90% DMSO. […] Compounds are studied in duplicates. Ten wells are filled with 90% DMSO which correspond to the stimulated and unstimulated control wells. […] The morning of the assay, whole blood is collected from three human donors. Donors must be non-smokers and must not have taken NSAIDs within the 48 hours prior to blood collection. The amount of blood collected per donor depends on the amount of compounds to be tested and the dose response format in which they are to be studied (about 8 mL of whole blood for either 22 compounds in 8-point dose response format or 11 compounds in 16-point dose response format). […] 50 μL of diluted blood are then dispensed into each assay plate well with pre-dispensed compounds and DMSO for the stimulated and unstimulated controls using a Thermo Scientific™ Multidrop™ Combi reagent dispenser, and incubated at 37° C. for 4 hours. Calcium ionophore A23187 is used to induce a rapid increase in intracellular levels of Ca^2+. The Ca^2+ functions as a universal second messenger in various immune cells, such as T cells, B cells and mast cells, and is used to induce degranulation and release of eicosanoids, including LTC4, by cells contained in the whole blood samples. […] All but the unstimulated control wells are subsequently stimulated by dispensing 1 μL of the 0.5 mg/mL calcium ionophore suspension using the Thermo Scientific™ Multidrop™ Combi reagent dispenser. Plates are incubated for 15 minutes at 37° C. Plates are then centrifuged at 300 g for 10 minutes at room temperature to pellet blood cells and stop the reaction. […] Plates are sealed and stored at −80° C.
In order to measure the amount of LTC4 released by cells in the human blood samples during calcium ionophore stimulation, supernatants are analyzed using the Cisbio LTC4 homogeneous time-resolved FRET (HTRF) kit (Cisbio #64LC4PEH). […] Ten serially diluted standard curve solutions are also dispensed in duplicate into each plate as instructed in the protocol. Blank controls and cryptate control wells are also prepared. Then, 5 μL of anti-LTC4-d2 working solution are dispensed into all the wells, but the cryptate control wells. Subsequently, 5 μL of anti-LTC4-Eu3+ cryptate working solution are dispensed into all the wells. Plates are then covered with a lid and incubated at room temperature for one hour with gentle orbital shaking (˜450 rpm). […] HTRF ratios are calculated for each well by dividing the 665 nm intensity by the 620 nm intensity, and multiplying the resulting ratio by 10,000. LTC4 standard curves are interpolated for each plate and used to convert the HTRF ratio readouts into the amount of LTC4 present in each well (in ng/mL). Parametric curve fitting is used to obtain inhibition curves and IC50 values.
On to `O=C1CCCC2(CCN(c3cc(OC4CCOCC4)nn(Cc4ccccc4)c3=O)CC2)N1c1ccc(F)c(F)c1` [Example 15a, 9-(2-benzyl-3-oxo-6-((tetrahydro-2H-pyran-4-yl)oxy)-2,3-dihydropyridazin-4-yl)-1-(3,4-difluorophenyl)-1,9-diazaspiro[5.5]undecan-2-one], for which the IC50 stood at 0.001 µM.
In the case of `Cn1nc(OC2CCOCC2)cc(N2CCC3(CCCC(=O)N3c3ccc(F)c(F)c3)CC2)c1=O` [Example 17, 1-(3,4-difluorophenyl)-9-(2-methyl-3-oxo-6-((tetrahydro-2H-pyran-4-yl)oxy)-2,3-dihydropyridazin-4-yl)-1,9-diazaspiro[5.5]undecan-2-one], the half-maximal inhibitory concentration (IC50) amounted to 0.009 µM.
For the compound `O=C1CCCC2(CCN(c3cc(=O)n(Cc4ccccc4)nc3OC3CCOCC3)CC2)N1c1ccc(F)c(F)c1` [Example 15b, 9-(1-benzyl-6-oxo-3-((tetrahydro-2H-pyran-4-yl)oxy)-1,6-dihydropyridazin-4-yl)-1-(3,4-difluorophenyl)-1,9-diazaspiro[5.5]undecan-2-one], the half-inhibitory concentration (IC50) worked out at 0.18 µM.

Staying with this assay, now noted: human whole blood diluted 1:3, 4 h incubation, calcium ionophore A23187 stimulation, LTC4 by HTRF; read-out: human whole blood HTRF IC50.
Take `Nc1nc(N[C@@H]2CCOC2)cc(N2CCC3(CCCC(=O)N3c3ccc(F)c(F)c3)CC2)n1` [Example 112, (R)-9-(2-amino-6-((tetrahydrofuran-3-yl)amino)pyrimidin-4-yl)-1-(3,4-difluorophenyl)-1,9-diazaspiro[5.5]undecan-2-one]: the IC50 stood at 0.067 µM.
Consider `Nc1nc(N2CCC3(CCCC(=O)N3c3ccc(F)c(F)c3)CC2)c(F)c(-n2cccn2)n1` [Example 59, 9-(2-amino-5-fluoro-6-(1H-pyrazol-1-yl)primidin-4-yl)-1-(3,4-difluorophenyl)-1,9-diazaspiro[5.5]undecan-2-one], for which the IC50 was 0.64 µM.
On the same count and under the same terms, to `C[C@@H](Oc1cc(N2CCC3(CCCC(=O)N3c3ccc(F)c(F)c3)CC2)nc(CO)n1)C(F)(F)F` (single isomer, unassigned) [Example 110b, (R)-1-(3,4-difluorophenyl)-9-(2-(hydroxymethyl)-6-((1,1,1-trifluoropropan-2-yl)oxy)pyrimidin-4-yl)-1,9-diazaspiro[5.5]undecan-2-one or (S)-1-(3,4-difluorophenyl)-9-(2-(hydroxymethyl)-6-((1,1,1-trifluoropropan-2-yl)oxy)pyrimidin-4-yl)-1,9-diazaspiro[5.5]undecan-2-one] belongs 0.005 µM; to `O=C1CCCC2(CCN(c3cc(O[C@@H]4CCOC4)nc(Cl)n3)CC2)N1c1ccc(F)c(F)c1` [Example 70, (R)-9-(2-chloro-6-((tetrahydrofuran-3-yl)oxy)pyrimidin-4-yl)-1-(3,4-difluorophenyl)-1,9-diazaspiro[5.5]undecan-2-one], 0.11 µM; to “(R)-9-(2-amino-6-((1,1,1-trifluoropropan-2-yl)oxy)pyrimidin-4-yl)-1-(3,4-difluorophenyl)-3-oxa-1,9-diazaspiro[5.5]undecan-2-one, or (S)-9-(2-amino-6-((1,1,1-trifluoropropan-2-yl)oxy)pyrimidin-4-yl)-1-(3,4-difluorophenyl)-3-oxa-1,9-diazaspiro[5.5]undecan-2-one [Example 113a]”, 0.015 µM.
Turning to `CC(Oc1cc(N2CCC3(CCCC(=O)N3c3ccc(F)c(F)c3)CC2)ncn1)C(F)(F)F` (racemic) [Example 86, rac-1-(3,4-dfluorophenyl)-9-(6-((1,1,1-trifluoropropan-2-yl)oxy)pyrimidin-4-yl)-1,9-diazaspiro[5.5]undecan-2-one], the IC50 is 0.002 µM.
Turning to `O=C1CCCC2(CCN(c3cc(OCC(F)(F)F)n[nH]c3=O)CC2)N1c1ccc(F)c(F)c1` [Example 13, 1-(3,4-difluorophenyl)-9-(3-oxo-6-(2,2,2-trifluoroethoxy)-2,3-dihydropyridazin-4-yl)-1,9-diazaspiro[5.5]undecan-2-one], the IC50 is 0.036 µM.
Same read-out and setting: to `Nc1nc(OC2COCC2(F)F)cc(N2CCC3(CCCC(=O)N3c3ccc(F)c(F)c3)CC2)n1` (racemic) [Example 98, rac-9-(2-amino-6-((4,4-difluorotetrahydrofuran-3-yl)oxy)pyrimidin-4-yl)-1-(3,4-difluorophenyl)-1,9-diazaspiro[5.5]undecan-2-one] belongs 0.003 µM; to `O=C1CCCC2(CCN(c3cc(-n4cccn4)nc(N4CCOCC4)n3)CC2)N1c1ccc(F)c(F)c1` [Example 52, 1-(3,4-difluorophenyl)-9-(2-morpholino-6-(1H-pyrazol-1-yl)pyrimidin-4-yl)-1,9-diazaspiro[5.5]undecan-2-one], 0.029 µM.
For `O=C1CCCC2(CCN(c3cnnc(N4CCC(O)(C(F)(F)F)CC4)c3)CC2)N1c1ccc(F)c(F)c1` [Example 42, 1-(3,4-difluorophenyl)-9-(6-(4-hydroxy-4-(trifluoromethyl)piperidin-1-yl)pyridazin-4-yl)-1,9-diazaspiro[5.5]undecan-2-one], the IC50 was found to be 0.41 µM.
In the case of `COc1nc(N2CCC3(CCCC(=O)N3c3ccc(F)c(F)c3)CC2)cc(-n2cccn2)n1` [Example 50, 1-(3,4-difluorophenyl)-9-(2-methoxy-6-(1H-pyrazol-1-yl)pyrimidin-4-yl)-1,9-diazaspiro[5.5]undecan-2-one], the IC50 is 0.045 µM.
Same read-out and setting: then `Nc1nc(N2CCC3(CC2)CC(F)CC(=O)N3c2ccc(F)c(F)c2)cc(C(F)(F)C(F)(F)F)n1` (racemic) [Example 117, rac-9-(2-amino-6-(perfluoroethyl)pyrimidin-4-yl)-1-(3,4-difluorophenyl)-4-fluoro-1,9-diazaspiro[5.5]undecan-2-one], with 0.018 µM.
Turning to `Nc1nc(OCC(F)(F)C(F)(F)F)cc(N2CCC3(CCCC(=O)N3c3ccc(F)c(F)c3)CC2)n1` [Example 97], the IC50 was found to be 0.003 µM.
`O=C1CCCC2(CCN(c3cc(OC4CCOCC4)ncn3)CC2)N1c1ccc(F)c(F)c1` [Example 87, 1-(3,4-difluorophenyl)-9-(6-((tetrahydro-2H-pyran-4-yl)oxy)pyrimidin-4-yl)-1,9-diazaspiro[5.5]undecan-2-one]: the IC50 was 0.007 µM.
On to `O=C1CCCC2(CCN(c3nc(Cl)cc(O[C@@H]4CCOC4)n3)CC2)N1c1ccc(F)c(F)c1` [Example 72, (R)-9-(4-chloro-6-((tetrahydrofuran-3-yl)oxy)pyrimidin-2-yl)-1-(3,4-difluorophenyl)-1,9-diazaspiro[5.5]undecan-2-one], for which the IC50 was 0.76 µM.
Turning to `CC(C)(O)c1nc(N2CCC3(CCCC(=O)N3c3ccc(F)c(F)c3)CC2)cc(C(F)(F)F)n1` [Example 80, 1-(3,4-difluorophenyl)-9-(2-(2-hydroxypropan-2-yl)-6-(trifluoromethyl)pyrimidin-4-yl)-1,9-diazaspiro[5.5]undecan-2-one], the IC50 is 0.024 µM.
Regarding `O=C1CCCC2(CCN(c3cc(-n4cc(C(F)(F)F)cn4)n[nH]c3=O)CC2)N1c1ccc(F)c(F)c1` [Example 12, 1-(3,4-difluorophenyl)-9-(3-oxo-6-(4-(trifluoromethyl)-1H-pyrazol-1-yl)-2,3-dihydropyridazin-4-yl)-1,9-diazaspiro [5.5] undecane-2-one], the IC50 came out at 0.002 µM.
Same read-out and setting: to `O=C1CCCC2(CCN(c3cc(-n4cc(C(F)(F)F)cn4)nc(Cl)n3)CC2)N1c1ccc(F)c(F)c1` [Example 69, 9-(2-chloro-6-(4-(trifluoromethyl)-1H-pyrazol-1-yl)pyrimidin-4-yl)-1-(3,4-difluorophenyl)-1,9-diazaspiro[5.5]undecan-2-one] belongs 0.035 µM.
With `Nc1nc(N2CCC3(CCCC(=O)N3c3ccc(F)c(F)c3)CC2)cc(N2C[C@H]3C[C@@H]2CO3)n1` (racemic) [Example 46, rac-9-(2-amino-6-((1R,4R)-2-oxa-5-azabicyclo[2.2.1]heptan-5-yl)pyrimidin-4-yl)-1-(3,4-difluorophenyl)-1,9-diazaspiro[5.5]undecan-2-one], the IC50 amounted to 0.49 µM.
`O=C1OCCC2(CCN(c3cc(-n4cc(C(F)(F)F)cn4)nc(CO)n3)CC2)N1c1ccc(F)c(F)c1` [Example 114, 1-(3,4-difluorophenyl)-9-(2-(hydroxymethyl)-6-(4-(trifluoromethyl)-1H-pyrazol-1-yl)pyrimidin-4-yl)-3-oxa-1,9-diazaspiro[5.5]undecan-2-one]: the IC50 came out at 0.007 µM.
